A word on the IC50: it is the concentration that gives 50% inhibition. Read a high IC50 as weaker potency.

Each structure is given as a SMILES string. Some results are limits rather than exact numbers.

Consider four compounds from patent publication US20240132457A1, “3-(2-(BENZO[D]THIAZOL-2-YL)-2-(PHENYLSUFONAMIDO)ETHYL)BENZIMIDAMIDE DERIVATIVES AND RELATED COMPOUNDS AS TMPRSS2 INHIBITORS FOR THE TREATMENT OF VIRAL INFECTIONS” (INTEGERBIO, INC., priority 2020, published 2024).

What all share (type): biochemical
In one test the target is ACE2 (Homo sapiens, UniProt Q9BYF1). Put plainly: Non-TMPRSS2 protease panel: ACE2. The conditions noted are these: 10-dose, 3-fold from 10 μM. As to the method:
(§1) Biochemical activity of compound 1 (racemic mixture, batch 1), compound 3 (racemic), compound 11, and compound 2 (enantiomer 1, batch 1) in proteases indicated in Table 21, Table 22, Table 23, and Table 24, respectively, were measured by testing the compounds in a 10-dose IC50 with a 3-fold series dilution starting at 10 μM against the proteases. The protease activities were monitored as a time-course measurement of the increase in fluorescence signal from fluorescently-labeled peptide substrate, and initial linear portion of slope (signal/min) was analyzed. The curve fits were performed when the activities at the highest concentration of compounds were less than 65%.

A further test addresses Kallikrein 1 (Homo sapiens, UniProt P06870). Kind of test: Non-TMPRSS2 protease panel: Kallikrein 1. Particulars: 10-dose, 3-fold from 10 μM. As to the method: as §1
Another test addresses T1, Kallikrein 12 (Homo sapiens, UniProt Q9UKR0).
T1 sequence (Q9UKR0 18-248): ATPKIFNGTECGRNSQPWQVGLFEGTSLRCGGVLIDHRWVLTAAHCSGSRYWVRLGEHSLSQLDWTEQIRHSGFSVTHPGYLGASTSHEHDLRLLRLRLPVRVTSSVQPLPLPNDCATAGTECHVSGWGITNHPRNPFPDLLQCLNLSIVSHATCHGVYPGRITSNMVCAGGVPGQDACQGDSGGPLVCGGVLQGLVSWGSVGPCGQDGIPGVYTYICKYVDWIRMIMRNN
Kind of test: Non-TMPRSS2 protease panel: Kallikrein 12. Particulars: 10-dose, 3-fold from 10 μM. As to the method:
as §1

A further test addresses T2, MMP 1 (Homo sapiens, UniProt P03956).
T2 sequence (P03956 100-469): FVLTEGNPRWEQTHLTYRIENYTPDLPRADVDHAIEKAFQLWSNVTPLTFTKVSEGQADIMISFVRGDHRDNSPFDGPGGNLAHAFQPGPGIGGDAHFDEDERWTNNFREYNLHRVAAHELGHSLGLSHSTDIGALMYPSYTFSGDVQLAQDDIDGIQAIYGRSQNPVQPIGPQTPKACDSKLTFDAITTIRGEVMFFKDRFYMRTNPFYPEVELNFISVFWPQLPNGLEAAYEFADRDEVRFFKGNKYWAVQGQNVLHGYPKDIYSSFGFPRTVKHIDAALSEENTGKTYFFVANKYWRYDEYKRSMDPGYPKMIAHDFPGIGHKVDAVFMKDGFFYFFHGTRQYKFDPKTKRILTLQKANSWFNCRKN
Kind of test: Non-TMPRSS2 protease panel: MMP 1. The conditions noted are these: 10-dose, 3-fold from 10 μM. The procedure:
as §1

The target in a further test is T3, MMP 2 (Homo sapiens, UniProt P08253).
T3 sequence (P08253 110-660): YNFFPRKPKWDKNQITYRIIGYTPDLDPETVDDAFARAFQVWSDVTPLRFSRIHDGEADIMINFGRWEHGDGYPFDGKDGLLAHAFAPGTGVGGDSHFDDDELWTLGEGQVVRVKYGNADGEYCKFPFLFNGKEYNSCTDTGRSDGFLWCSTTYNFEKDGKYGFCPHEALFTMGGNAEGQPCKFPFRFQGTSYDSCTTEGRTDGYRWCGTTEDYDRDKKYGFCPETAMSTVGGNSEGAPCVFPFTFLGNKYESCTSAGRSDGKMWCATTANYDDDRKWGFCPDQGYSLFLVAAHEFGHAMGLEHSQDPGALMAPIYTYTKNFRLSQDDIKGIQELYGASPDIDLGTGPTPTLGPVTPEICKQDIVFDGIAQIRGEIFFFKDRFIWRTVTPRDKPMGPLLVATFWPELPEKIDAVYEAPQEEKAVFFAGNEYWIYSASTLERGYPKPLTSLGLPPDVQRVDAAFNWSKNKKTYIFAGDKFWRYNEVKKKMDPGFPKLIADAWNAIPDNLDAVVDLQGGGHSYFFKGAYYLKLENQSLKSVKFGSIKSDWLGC
Put plainly: Non-TMPRSS2 protease panel: MMP 2. The conditions noted are these: 10-dose, 3-fold from 10 μM. The procedure:
as §1

A further test deals with T4, MMP 7 (Homo sapiens, UniProt P09237).
T4 sequence (P09237 95-267): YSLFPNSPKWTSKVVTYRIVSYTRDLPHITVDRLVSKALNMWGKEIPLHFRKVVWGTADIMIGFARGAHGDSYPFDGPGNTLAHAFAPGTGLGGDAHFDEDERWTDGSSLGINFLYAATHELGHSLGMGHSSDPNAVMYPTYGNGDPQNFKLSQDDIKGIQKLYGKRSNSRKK
Kind of test: Non-TMPRSS2 protease panel: MMP 7. Particulars: 10-dose, 3-fold from 10 μM. As to the method:
as §1

The target in another test is MMP 10 (Homo sapiens, UniProt P09238). Put plainly: Non-TMPRSS2 protease panel: MMP 10. The conditions noted are these: 3-fold from 10 μM. The procedure: as §1
The next test concerns the target MMP 13 (Homo sapiens, UniProt P45452). Put plainly: Non-TMPRSS2 protease panel: MMP 13. The conditions noted are these: 10-dose, 3-fold from 10 μM. As to the method: as §1
A further test concerns the target MMP 14 (Homo sapiens, UniProt P50281). Put plainly: Non-TMPRSS2 protease panel: MMP 14. The conditions noted are these: 10-dose, 3-fold from 10 μM. The procedure: as §1
For the next test, the target named is T5, Mpro (Severe acute respiratory syndrome coronavirus 2, UniProt P0DTD1).
T5 construct: MMP 14, Mpro, Plasma Kallikrein
Put plainly: Non-TMPRSS2 protease panel: Mpro. Particulars: 10-dose, 3-fold from 10 μM. As to the method: as §1

The target of the next test is Plasmin (Homo sapiens, UniProt P00747). Kind of test: Non-TMPRSS2 protease panel: Plasmin. Particulars: 10-dose, 3-fold from 10 μM. The procedure:
as §1

Another test concerns the target T6, PLpro (Severe acute respiratory syndrome coronavirus 2, UniProt P0DTD1).
T6 construct: Plasma Kallikrein, Plasmin, Plpro, TACE
Put plainly: Non-TMPRSS2 protease panel: PLpro. The conditions noted are these: 10-dose, 3-fold from 10 μM. The procedure:
as §1

For a further test, the system named is Trypsin. Kind of test: Non-TMPRSS2 protease panel: Trypsin. The conditions noted are these: 10-dose, 3-fold from 10 μM. As to the method:
as §1

The target in another test is Tryptase b2 (Homo sapiens, UniProt P20231). Kind of test: Non-TMPRSS2 protease panel: Tryptase b2. Particulars: 10-dose, 3-fold from 10 μM. As to the method: as §1
The target in a further test is Urokinase (Homo sapiens, UniProt P00749). Kind of test: Non-TMPRSS2 protease panel: Urokinase. Particulars: 10-dose, 3-fold from 10 μM. The procedure:
as §1

Sequence of MMP 10 (P09238 99-476): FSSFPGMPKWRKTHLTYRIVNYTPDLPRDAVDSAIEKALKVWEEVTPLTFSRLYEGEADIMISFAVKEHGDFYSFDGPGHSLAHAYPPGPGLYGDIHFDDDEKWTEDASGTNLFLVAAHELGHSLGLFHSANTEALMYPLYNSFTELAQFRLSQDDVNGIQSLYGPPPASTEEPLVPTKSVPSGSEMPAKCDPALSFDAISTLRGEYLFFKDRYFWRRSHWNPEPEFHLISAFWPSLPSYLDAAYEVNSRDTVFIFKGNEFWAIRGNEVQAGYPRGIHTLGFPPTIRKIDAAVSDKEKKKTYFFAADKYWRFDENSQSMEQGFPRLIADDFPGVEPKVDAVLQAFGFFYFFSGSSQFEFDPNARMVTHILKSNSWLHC
Sequence of ACE2 (Q9BYF1 18-805): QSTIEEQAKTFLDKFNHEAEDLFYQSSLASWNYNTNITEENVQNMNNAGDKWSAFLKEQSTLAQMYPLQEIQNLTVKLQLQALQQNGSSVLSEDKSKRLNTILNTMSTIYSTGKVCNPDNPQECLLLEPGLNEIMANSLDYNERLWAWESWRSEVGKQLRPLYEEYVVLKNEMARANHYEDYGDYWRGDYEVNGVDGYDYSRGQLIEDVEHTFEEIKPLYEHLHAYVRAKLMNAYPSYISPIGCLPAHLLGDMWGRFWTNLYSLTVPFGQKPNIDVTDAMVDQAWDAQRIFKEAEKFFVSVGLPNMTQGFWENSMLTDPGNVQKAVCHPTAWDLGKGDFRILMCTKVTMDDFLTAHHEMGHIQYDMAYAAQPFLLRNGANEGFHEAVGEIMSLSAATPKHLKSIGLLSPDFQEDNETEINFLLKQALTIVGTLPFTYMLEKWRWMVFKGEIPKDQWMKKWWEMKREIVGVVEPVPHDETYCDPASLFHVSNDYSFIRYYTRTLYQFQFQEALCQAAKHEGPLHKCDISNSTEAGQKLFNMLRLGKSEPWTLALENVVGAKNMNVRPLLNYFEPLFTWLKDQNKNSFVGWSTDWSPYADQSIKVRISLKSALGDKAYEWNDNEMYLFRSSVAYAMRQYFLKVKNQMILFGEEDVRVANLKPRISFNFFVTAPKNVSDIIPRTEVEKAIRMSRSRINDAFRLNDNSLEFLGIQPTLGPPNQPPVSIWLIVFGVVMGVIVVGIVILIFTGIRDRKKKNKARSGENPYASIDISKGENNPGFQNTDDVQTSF
Sequence of Tryptase b2 (P20231 31-275): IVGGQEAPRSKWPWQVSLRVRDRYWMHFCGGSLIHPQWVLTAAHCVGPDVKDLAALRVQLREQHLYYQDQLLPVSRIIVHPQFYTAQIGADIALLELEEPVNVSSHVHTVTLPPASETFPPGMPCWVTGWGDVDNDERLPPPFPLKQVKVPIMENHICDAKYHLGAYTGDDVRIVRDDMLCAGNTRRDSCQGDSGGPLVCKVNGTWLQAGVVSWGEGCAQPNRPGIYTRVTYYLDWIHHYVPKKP
Sequence of Kallikrein 1 (P06870 25-262): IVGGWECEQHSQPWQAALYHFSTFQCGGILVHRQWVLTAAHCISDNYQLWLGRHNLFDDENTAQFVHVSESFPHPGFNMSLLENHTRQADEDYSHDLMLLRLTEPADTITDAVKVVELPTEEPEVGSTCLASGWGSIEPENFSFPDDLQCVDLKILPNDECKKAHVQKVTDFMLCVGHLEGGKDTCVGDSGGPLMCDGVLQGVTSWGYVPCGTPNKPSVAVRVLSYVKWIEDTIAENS
Sequence of Plasmin (P00747 581-810 limits assumed, species assumed): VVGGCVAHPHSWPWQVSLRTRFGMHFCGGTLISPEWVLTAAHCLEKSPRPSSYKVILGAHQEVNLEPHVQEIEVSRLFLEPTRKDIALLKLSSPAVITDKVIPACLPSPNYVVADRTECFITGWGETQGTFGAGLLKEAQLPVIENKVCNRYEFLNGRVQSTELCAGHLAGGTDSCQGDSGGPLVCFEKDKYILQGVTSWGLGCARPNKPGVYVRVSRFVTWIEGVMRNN
Sequence of Plasmin (P00747 97-580 partner limits assumed, species assumed): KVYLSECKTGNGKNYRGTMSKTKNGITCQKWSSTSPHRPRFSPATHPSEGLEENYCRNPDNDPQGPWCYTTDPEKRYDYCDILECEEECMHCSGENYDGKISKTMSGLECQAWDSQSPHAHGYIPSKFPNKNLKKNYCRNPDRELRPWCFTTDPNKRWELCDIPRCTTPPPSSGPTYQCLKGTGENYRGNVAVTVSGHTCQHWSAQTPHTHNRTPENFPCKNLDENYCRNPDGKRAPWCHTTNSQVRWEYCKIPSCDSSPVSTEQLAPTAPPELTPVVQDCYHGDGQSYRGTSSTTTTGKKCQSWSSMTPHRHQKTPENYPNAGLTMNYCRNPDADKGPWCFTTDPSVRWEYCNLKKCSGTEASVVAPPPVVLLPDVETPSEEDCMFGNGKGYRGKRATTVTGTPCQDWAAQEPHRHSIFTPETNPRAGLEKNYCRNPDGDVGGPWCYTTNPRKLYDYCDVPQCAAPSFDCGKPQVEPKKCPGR

As for `N=C(N)c1cccc(CC(NS(=O)(=O)c2cccc(-c3ccc(Cl)cc3Cl)c2)c2nc3ccccc3s2)c1` (racemic) [3 (racemic), 3-[2-(1,3-Benzothiazol-2-yl)-2-{2′,4′-dichloro-[1,1′-biphenyl]-3-sulfonamido}ethyl]benzene-1-carboximidamide], the IC50 on ACE2 is over 10 µM; at Kallikrein 1, over 10 µM; against Kallikrein 12, over 10 µM; at MMP 1, over 10 µM; on MMP 2, under 10 µM; at MMP 7, over 10 µM. The 50% inhibitory concentration (IC50) is over 10 µM against MMP 10; over 10 µM at MMP 13; under 10 µM against MMP 14; over 10 µM on Mpro; over 10 µM on Plasmin; over 10 µM at PLpro. The half-inhibitory concentration (IC50) in the test on Trypsin is under 10 µM; against Tryptase b2, under 10 µM; at Urokinase, over 10 µM.

Regarding `N=C(N)c1cccc(CC(NS(=O)(=O)c2ccccc2)c2nc3ccccc3s2)c1` (racemic) [1 (racemic mixture, batch 1), 3-[2-Benzenesulfonamido-2-(1,3-benzothiazol-2-yl)ethyl]benzene-1-carboximidamide], the half-inhibitory concentration (IC50) was over 10 µM on ACE2; under 10 µM against Kallikrein 1; over 10 µM against Kallikrein 12; over 10 µM at MMP 1; over 10 µM at MMP 2; over 10 µM against MMP 7. For the same compound, the half-maximal inhibitory concentration (IC50) at MMP 10, against MMP 13, against MMP 14, on Mpro, against Plasmin and at PLpro was over 10 µM throughout. For the same compound, the IC50 with Trypsin, against Tryptase b2 and against Urokinase was over 10 µM in each case.

`COc1ccc2nc(C(Cc3cccc(C(=N)N)c3)NS(=O)(=O)c3ccccc3)sc2c1` (stereo not drawn) [Compound 11, 3-[2-Benzenesulfonamido-2-(6-methoxy-1,3-benzothiazol-2-yl)ethyl]benzene-1-carboximidamide]: the IC50 was over 10 µM on ACE2; under 10 µM at Kallikrein 1; over 10 µM on Kallikrein 12; over 10 µM at MMP 1; over 10 µM against MMP 2; over 10 µM against MMP 7. The half-inhibitory concentration (IC50) at MMP 10, at MMP 13, against MMP 14, against Mpro, at Plasmin and on PLpro was over 10 µM throughout. Also, the IC50 was over 10 µM with Trypsin, over 10 µM against Tryptase b2 and under 10 µM at Urokinase.

Consider `N=C(N)c1cccc(C[C@H](NS(=O)(=O)c2ccccc2)c2nnco2)c1` (single isomer, unassigned) [Compound 2 (enantiomer 1, batch 1), 3-[2-Benzenesulfonamido-2-(1,3,4-oxadiazol-2-yl)ethyl]benzene-1-carboximidamide], for which the IC50 at ACE2, at Kallikrein 1, at Kallikrein 12, against MMP 1, against MMP 2 and on MMP 7 was over 10 µM throughout. Further, the IC50 at MMP 10, against MMP 13, against MMP 14, against Mpro, against Plasmin and against PLpro was over 10 µM in each case. The IC50 in the test on Trypsin, against Tryptase b2 and at Urokinase was over 10 µM each time.
